This passage reports Ki results from ChEMBL document CHEMBL1153927, “Benzimidazolone-based serotonin 5-HT1A or 5-HT7R ligands: synthesis and biological evaluation” (Bioorg Med Chem Lett, 2009).

In experiment [1] the target is 5-hydroxytryptamine receptor 7 (Homo sapiens, UniProt P34969). Kind of experiment: Inhibition of human 5HT7 receptor expressed in HEK293 cells by competitive binding assay. In kind it is cell-based.
Experiment [2] deals with T1, 5-hydroxytryptamine receptor 1A (Rattus norvegicus, UniProt P19327).
T1 sequence (P19327 whole entry): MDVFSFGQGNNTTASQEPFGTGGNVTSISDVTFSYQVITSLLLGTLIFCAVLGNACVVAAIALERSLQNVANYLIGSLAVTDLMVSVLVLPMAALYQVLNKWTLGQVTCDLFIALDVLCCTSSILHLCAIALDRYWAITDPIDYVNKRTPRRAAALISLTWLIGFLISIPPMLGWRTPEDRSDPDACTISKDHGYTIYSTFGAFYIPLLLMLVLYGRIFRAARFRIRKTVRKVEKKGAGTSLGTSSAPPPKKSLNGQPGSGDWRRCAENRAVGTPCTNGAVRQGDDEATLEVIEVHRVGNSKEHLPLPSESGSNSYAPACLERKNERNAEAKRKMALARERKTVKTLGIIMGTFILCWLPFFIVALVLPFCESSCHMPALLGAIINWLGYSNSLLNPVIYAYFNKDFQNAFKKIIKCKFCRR
Kind of experiment: Inhibition of rat hippocampus 5HT1A receptor by competitive binding assay. In kind it is tissue-based.

Chain of 5-hydroxytryptamine receptor 7 (P34969 whole entry): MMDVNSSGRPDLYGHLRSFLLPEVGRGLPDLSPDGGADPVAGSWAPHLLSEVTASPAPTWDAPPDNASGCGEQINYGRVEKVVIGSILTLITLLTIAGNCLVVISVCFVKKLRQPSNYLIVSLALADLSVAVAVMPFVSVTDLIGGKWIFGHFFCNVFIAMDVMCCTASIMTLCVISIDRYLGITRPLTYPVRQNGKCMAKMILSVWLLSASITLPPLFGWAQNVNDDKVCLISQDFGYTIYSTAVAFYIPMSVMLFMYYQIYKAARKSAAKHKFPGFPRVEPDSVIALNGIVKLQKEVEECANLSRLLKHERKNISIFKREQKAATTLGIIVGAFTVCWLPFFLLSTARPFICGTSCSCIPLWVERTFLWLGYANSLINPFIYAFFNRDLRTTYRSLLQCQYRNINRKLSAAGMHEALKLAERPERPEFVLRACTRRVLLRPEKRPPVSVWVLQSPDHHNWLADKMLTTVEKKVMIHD

By Ki is commonly meant a dissociation constant, usually derived from enzyme kinetics or from competition with a known ligand. For the molecule `COc1ccc(-n2c(=O)n(CCN3CCN(c4ccccc4)CC3)c3ccccc32)cc1`, the Ki in experiment [1] came to 566 nM; in experiment [2], 340 nM.

`O=c1[nH]c2ccccc2n1CCCN1CCN(c2ccccc2)CC1`: the inhibition constant (Ki) worked out at 243 nM in experiment [1] and 26 nM in experiment [2].

In the case of `COc1cccc(-n2c(=O)n(CCN3CCN(c4ccccc4)CC3)c3ccccc32)c1`, the Ki in experiment [1] came to 864 nM; in experiment [2] it was 646 nM.

On to `Cc1ccccc1N1CCN(CCn2c(=O)n(-c3ccccc3C)c3ccccc32)CC1`, for which the Ki was found to be 18000 nM in experiment [1] and 375 nM in experiment [2].

Take `COc1ccc(-n2c(=O)n(CCCCN3CCN(c4ccccc4OC)CC3)c3ccccc32)cc1`: the Ki in experiment [1] amounted to 267 nM; in experiment [2], 36 nM.

For `O=c1n(CCN2CCN(c3ccccc3)CC2)c2ccccc2n1-c1ccccc1`, the figures for the inhibitory constant (Ki) in experiment [1] and in experiment [2] were 1230 nM and 467 nM, respectively.

For `COc1ccccc1N1CCN(Cc2ccn(-c3ccccc3C)c2)CC1`, in experiment [1], the Ki came out at 4.3 nM.

Turning to `O=c1[nH]c2ccccc2n1CCCCN1CCN(c2ccccc2)CC1`, the Ki in experiment [1] amounted to 48 nM; in experiment [2], 84 nM.

In the case of `COc1ccc(-n2c(=O)n(CCN3CCN(c4ccccc4OC)CC3)c3ccccc32)cc1`, the Ki in experiment [1] came out at 296 nM; in experiment [2], 22 nM.

Consider `COc1ccc(-n2c(=O)n(CCCN3CCN(c4ccccc4OC)CC3)c3ccccc32)cc1`, for which the inhibition constant (Ki) in experiment [1] came out at 168 nM; in experiment [2], 26 nM.

Turning to `O=c1[nH]c2ccccc2n1CCCCCCN1CCN(c2ccccc2)CC1`, the figures for the Ki in experiment [1] and in experiment [2] were 20 nM and 48 nM, respectively.

For `O=c1[nH]c2ccccc2n1CCCCCN1CCN(c2ccccc2)CC1`, the inhibition constant Ki is 6 nM in experiment [1] and 269 nM in experiment [2].

Take `COc1ccccc1N1CCN(CCCCCCn2c(=O)[nH]c3ccccc32)CC1`: the Ki in experiment [1] stood at 78 nM; in experiment [2], 12 nM.

`Cc1ccccc1-n1c(=O)n(CCN2CCN(c3ccccc3)CC2)c2ccccc21`: the Ki in experiment [1] stood at 902 nM; in experiment [2] it was 636 nM.

With `O=c1[nH]c2ccccc2n1CCN1CCN(c2ccccc2)CC1`, the Ki came to 1030 nM in experiment [1] and 392 nM in experiment [2].

On to `COc1ccccc1N1CCN(CCCn2c(=O)[nH]c3ccccc32)CC1`, for which the Ki came to 40 nM in experiment [1] and 3.4 nM in experiment [2].

For `COc1ccccc1N1CCN(CCCCn2c(=O)[nH]c3ccccc32)CC1`, the Ki in experiment [1] stood at 26 nM; in experiment [2], 6 nM.

Turning to `COc1cccc(-n2c(=O)n(CCN3CCN(c4ccccc4C)CC3)c3ccccc32)c1`, the inhibition constant (Ki) in experiment [1] was determined as 2500 nM; in experiment [2], 182 nM.

In the case of `COc1ccccc1N1CCN(CCn2c(=O)[nH]c3ccccc32)CC1`, the Ki was 1840 nM in experiment [1] and 25 nM in experiment [2].

Turning to `O=c1[nH]c2ccccc2n1CCCCCN1CCN(c2cccc(Cl)c2)CC1`, the Ki is 11 nM in experiment [1] and 66 nM in experiment [2].

`Cc1ccccc1N1CCN(CCn2c(=O)n(-c3ccccc3)c3ccccc32)CC1`: the Ki in experiment [1] amounted to 1870 nM; in experiment [2], 168 nM.

Turning to `COc1ccccc1N1CCN(CCCCCn2c(=O)[nH]c3ccccc32)CC1`, the Ki in experiment [1] is 38 nM; in experiment [2], 33 nM.

`O=c1[nH]c2ccccc2n1CCCCCN1CCN(c2ccc(Cl)cc2)CC1`: the values for the inhibitory constant (Ki) in experiment [1] and in experiment [2] were 7 nM and 454 nM, respectively.
